# Assay results reported in patent publication US8735624B2, “Polymorphic form of CHDMAPP, method of preparation thereof, and pharmaceutical composition comprising same” (Innate Pharma, priority 2008, dated 2014).
# Key:
# [1] = pKa of the acidic functions; format: physicochemical
# Excerpt: Each of these acidic functions can be coupled with a cation. Therefore, three stoichiometries of sodium salts of CHDMAPP may be prepared: A monosodium salt, a disodium salt and a trisodium salt.
# [2] = stability of CHDMAPP in solution in water; format: physicochemical; details: in solution in water at 5% in weight, 55° C.
# Excerpt: The crystalline phase thus provides a dramatic improvement of the stability and of the storage capabilities of the drug product.
# γδ T cells = details: activator of γδ T cells; times higher than BrHPP; cited from earlier work
# [3] = DVS hygroscopicity and moisture measurements; format: physicochemical; details: result in words
# Description: Moisture sorption isotherms of the crystalline phases were obtained by using a DVS-1 automated water sorption analyzer (Surface Measurements Systems, Alperton, Middlesex, United Kingdom). The reference material was an empty glass pan and the total gas flow was 200 sccm.min^−1 (Standard Cubic Centimeters per minute). Temperature of analysis was 20° C. For each measurement, precisely ca. 15 mg of the sample were weighed in a glass pan beforehand allowed for the tare, then placed in the analyzer.
# As a first stage, dry nitrogen (0% R.H) was applied until constant weight of the sample in order to eliminate adsorbed or absorbed water (potential dehydration). Then, mass variations were recorded while R.H. was increased by steps of 10% R.H. The automated analyzer was allowed to start the following step as soon as the mass variation of the sample was less than 5.10^−4 mg.min^−1. The upper limit was adjusted below the deliquescence of the compound and never exceeded 90% R.H.
# DVSWin (v 2.18) was used as control and data collection software whereas data processing was performed by using DVS Standard Analysis Suite (v 4.3).
# Further parameters used in DVS procedures are as follows:
# Protocole Dynamic Vapor Sorption/Appareil ‘Surface Measurements Systems)=
# Automated Water Sorption Analyzer’/model: DVS−1
# Analysis method: • step mode, • Temperature: 20° C. • step dm/dt<0.0005 (mg/min) • First stage R.H.=0% • Last Stage R.H.=90% • Minimum Stage: 20 min • Maximum Stage: 120 min • Total Gas Flow: 200 • Nitrogen: 200 Bars, H2O<3 ppm, O2<2 ppm, Réf. Nitrogen N50 B50*0 Software—data collection and data processing: • DVSWin v2.18 (control software), • DVS Standard Analysis Suite v4.3 (analysis software).]
# [4] = solid phase stability on storage (XRPD); format: physicochemical; details: for crystalline structure after storage (XRPD): stored 3 months at 40° C., 75% RH
# Description: X-Ray Powder Diffraction measurements were carried out by using a SIEMENS D5005 diffractometer (Bruker analytical X-Ray Systems, D-76187 Karlsruhe, Germany) with a Bragg Brentano geometry, in theta-theta reflection mode. The instrument is equipped with a X-Ray tube (copper anticathode, 40 kV, 30 mA, Kα1 radiation: 1.5406 Å, Kα2 radiation: 1.5444 Å), a nickel filter and a scintillation detector. The diffraction patterns were collected by steps of 0.04° (2-theta) over the angular range 3°-30°, with a counting time of 4 s per step. No internal standard was used but a sample of quartz was analyzed as an external standard. The temperature of the sample was either the room temperature or accurately monitored when heating was required. DIFFRAC PLUS Edit Job software (v. 2.00) was used as control software and data processing was performed by using the Eva software (v. 9.0 and v. 10.0).
# TG/DSC thermal stability = format: physicochemical; details: TGA-DSC
# Description: The stability range was assessed using Differential Scanning calorimetry (DSC), using a Netzsch STA 449C apparatus, as is described in detail hereinafter, and having a standard deviation of ±0.5° C. The person skilled in the art will appreciate that alternative readings of the melting point may result from the use of other types of DSC equipment and/or the use of other system under conditions different to those described below.
# TG/DSC measurements were carried out by using a NETZSCH STA 449C Jupiter Thermogravimetric Analyzer (NETZSCH, D-95100 Selb, Germany) equipped with a low temperature furnace. The purge gas used was helium (gas flow=50 mL/min) and the reference material was an empty aluminum pan without cap. The samples were weighed in open aluminum pans, and then placed in the analyzer. The analyses were performed within various temperature ranges using a 2°.min^−1 heating rate. PROTEUS software was used for the acquisition and data processing (v. 4.7.0).
# [5] = ICH stability testing (chemical purity by HPAEC); format: physicochemical; details: closed glass vials
# Description: The chemical purity of phosphoesters (including the isomeric purity for geometric isomers) is determined using High Performance Anion-Exchange Chromatography (HPAEC) with suppressed conductivity detection. The HPAEC device comprises a DIONEX DX600 system (DIONEX Corporation, Sunnyvale Calif., USA) connected to computer loaded with DIONEX Chromeleon® chromatography software. A DIONEX CD25 conductivity detector is used with an anion self regenerating suppressor (ASRS®-ultra II-4 mm), which is set to either auto-suppression mode or external water mode. The HPAEC column used is a DIONEX Ion Pac® AS11 column (4×250 mm) equipped with an AG11 guard column (4×50 mm). In this procedure, phosphoesters are eluted (as anionic form) from the anion exchange column with a sodium or potassium hydroxide step gradient.
# Stability tests of CHDMAPP-Na2,1H2O have been conducted according to ICH guideline Q7a, Section 19.11, under various storage conditions: 5° C., and 25° C./60% RH, both in closed glass vials. Purity has been assessed at regular time intervals (t0, 1, 3, 6 and 9 months) by HPAEC using a Dionex Ion Pac AS11, 4.0×250 mm column and a Dionex Ion Pac AG11, […] and by eluting with a gradient of water and NaOH solution.
compound,measurement,setting,value
"C/C(=C\CCP(=O)(O)OP(=O)(O)O)CO [CHDMAPP, (2E)-1-hydroxy-2-methylpent-2-enyl-pyrophosphonate]",pKa of the weak acidic function,"[1]; one function, weak pKa",7.1
same,pKa of the two strong acidic functions,"[1]; two functions, strong pKa",2.1
same,half-life,[2],62.4 h
same,in vitro activity relative to BrHPP (Phosphostim),γδ T cells,approximately 100 times
"C/C(=C\CCP(=O)([O-])OP(=O)(O)O)CO.C/C(=C\CCP(=O)([O-])OP(=O)(O)O)CO.[Na+].[Na+] [CHDMAPP-Na2,0H2O, anhydrous (2E)-1-hydroxy-2-methylpent-2-enyl-pyrophosphonate disodium]",hygroscopicity,[3],hygroscopic
same,hygroscopicity,[3]; listed as anhydrous salt,somewhat hygroscopic
same,crystalline structure after storage (XRPD),[4],completely modified
"C/C(=C\CCP(=O)(O)OP(=O)(O)O)CO [CHDMAPP-Na2,1H2O, (2E)-1-hydroxy-2-methylpent-2-enyl-pyrophosphonate disodium monohydrate]",hygroscopicity,[3],great non-hygroscopicity
same,temperature up to which compound is stable (onset of endothermic dehydration peak),TG/DSC thermal stability; listed as monohydrate disodium salt,115 °C
same,temperature up to which compound is stable (onset of endothermic dehydration peak),TG/DSC thermal stability; disodium monohydrate,115.7 °C
same,Purity,"[5]; storage 5° C., 1 month",99.1%
same,Purity,"[5]; storage 5° C., 3 months",99.2%
same,Purity,"[5]; storage 5° C., 6 months",98.8%
same,Purity,"[5]; storage 5° C., 9 months",98.9%
same,Purity,"[5]; storage 5° C., t 0",99.3%
same,Purity,"[5]; storage 25° C./60% R.H., 1 month",99.2%
same,Purity,"[5]; storage 25° C./60% R.H., 3 months",99.1%
same,Purity,"[5]; storage 25° C./60% R.H., 6 months",98.7%
same,Purity,"[5]; storage 25° C./60% R.H., 9 months",98.9%
same,Purity,"[5]; storage 25° C./60% R.H., t 0",99.3%
same,spontaneous phase transformation on storage,"[4]; after more than 6 months, 25° C., 60% RH",does not observe any spontaneous phase transformation
same,crystalline structure after storage (XRPD),[4],has not been modified
CC(=CCCP(=O)([O-])OP(=O)([O-])[O-])CO.[Na+].[Na+].[Na+] [trisodium],hygroscopicity,[3],very hygroscopic solid
